Experimental data from US7635701B2 (Glaxo Group Limited, priority 2002, dated 2009).

Legend:
[1] = target: human cannabinoid CB2 receptor (Homo sapiens, UniProt P34972); assay: Cannabinoid CB2 receptor agonist activity in yeast cells (FDGlu fluorescence)
[2] = Particle size analysis on Lecotrac laser particle size analyser, pre and post nanomilling; type: physicochemical; details: for Post-nanomilling 50% percentile particle size / Post-nanomilling 95% percentile particle size: after wet milling in aqueous 1.5% HPMC with YTZ beads; for Pre-nanomilling 50% percentile particle size / Pre-nanomilling 95% percentile particle size: starting material before nanomilling
Protocol: The particle size of the solid particles of compound (1) may be determined by laser diffraction. A suitable machine for determining particle size by laser diffraction is a Lecotrac laser particle size analyser, using an HELOS optical bench fitted with a QUIXEL dispersion unit.
2.5 g of compound of example 176 was weighed into a […] centrifuge tube. 25 ml of 0.3 mm yttrium zirconium (YTZ) ceramic milling beads (Manufacturer: Tosoh, Japan; Supplier: Glen Creston Ltd., batch no. 5280130030)”) was weighed into a 50 ml milling pot. 22.5 ml of aqueous 1.5% HPMC was measured with a measuring cylinder into a 100 ml beaker. This solution was homogenised for 3 seconds with an Ultra Turrax T25 homogeniser. Approximately 200 mg of the 2.5 g of the compound was added to the HPMC solution and homogenised at the lowest speed setting until the powder was wetted. This was repeated until all the compound had been added. The speed of the homogeniser was then increased to maximum and the suspension was homogenised for a further 3 minutes. This suspension was allowed to stand for 30 minutes in order to allow some of the foam to disperse. The suspension was then poured into the 50 ml pot containing the YTZ milling beads, stirring to release any trapped air. The lid to the pot was then fitted and the pot sealed with some Nesco film. This procedure was repeated for a second 50 ml nanomilling pot and both pots were placed on a Retsch mill and milled for a total of 8 hours.
The milling pots were removed from the Retsch mill and left to cool and for the foam to disperse overnight. In the morning the suspension and bead mixture was passed through a 200μ, 40 mm diameter screen. The contents from each 50 ml pot was washed with aqueous 1.5% HPMC: 10% of the original suspension volume (i.e. 2.5 ml). The suspension from the 2 pots was combined to make 1 batch. The suspension obtained from the method above was named the concentrate.
A particle size analysis was carried out on the Lecotrac laser particle size analyser. The results are shown in Table B along with the results from the starting material for comparison:
Compounds of Examples 19, 34, 194, 217, 228, 247 were nanomilled on a 1 g scale using the process described above and the particle size analysed pre and post nanomilling.

Chain of human cannabinoid CB2 receptor (P34972 whole entry): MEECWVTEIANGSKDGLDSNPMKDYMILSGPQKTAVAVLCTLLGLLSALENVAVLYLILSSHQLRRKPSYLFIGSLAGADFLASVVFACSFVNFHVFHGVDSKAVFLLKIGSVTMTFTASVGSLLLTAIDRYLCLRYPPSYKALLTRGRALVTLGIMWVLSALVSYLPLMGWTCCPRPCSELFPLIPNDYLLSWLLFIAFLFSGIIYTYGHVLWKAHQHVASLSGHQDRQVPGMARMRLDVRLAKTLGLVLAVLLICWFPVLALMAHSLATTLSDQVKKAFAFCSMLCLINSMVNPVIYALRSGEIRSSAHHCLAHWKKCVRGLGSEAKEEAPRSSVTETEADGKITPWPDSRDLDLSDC

| Compound | EC50 [1] [nM] | Post-nanomilling 50% percentile particle size [2] [μ] | Post-nanomilling 95% percentile particle size [2] [μ] | Pre-nanomilling 50% percentile particle size [2] [μ] | Pre-nanomilling 95% percentile particle size [2] [μ] |
| --- | --- | --- | --- | --- | --- |
| O=C(NCC1CCCO1)c1cnc(Nc2cccc(F)c2)nc1C(F)(F)F (stereo in doubt) [Example 73, 2-(3-Fluoro-phenylamino)-4-trifluoromethyl-pyrimidine-5-carboxylic acid [(R)-1-(tetrahydro-furan-2-yl)methyl]-amide] | 300 to 1000 | – | – | – | – |
| N#Cc1ccc(Nc2ncc(C(=O)NCC3CCOCC3)c(C(F)(F)F)n2)cc1Cl [Ex 217, 2-(4-Cyano-3-chloro-phenylamino)-4-trifluoromethyl-pyrimidine-5-carboxylic acid (tetrahydro-pyran-4-ylmethyl)-amide] | – | 0.34 | 1.30 | 5.70 | 34.9 |
| O=C(NCC1CCCC1)c1cnc(Nc2ccc(F)c(Cl)c2)nc1C(F)(F)F [Ex 247, 2-(3-Chloro-4-fluoro-phenylamino)-4-trifluoromethyl-pyrimidine-5-carboxylic acid cyclopentylmethyl-amide] | – | 0.64 | 2.53 | 13.2 | 68.7 |
| O=C(NCC1CCCCC1)c1cnc(Nc2ccccc2)nc1C(F)(F)F [Example 5] | 20 to 300 | – | – | – | – |
| O=C(c1cnc(Nc2cccc(Br)c2)nc1C(F)(F)F)N1CCCCC1 [Example 12] | 20 to 300 | – | – | – | – |
| O=C(NCC1CCCCC1)c1cnc(Nc2cccc(F)c2)nc1C(F)(F)F [Example 19, 2-(3-Fluorophenylamino)-4-trifluoromethylpyrimidine-5-arboxylic acid cyclohexylmethyl-amide] | – | 0.40 | 1.40 | 5.22 | 25.5 |
| O=C(NC1CCSCC1)c1cnc(Nc2cccc(Cl)c2Cl)nc1C(F)(F)F [Example 81, 2-(2,3-Diclorophenylamino)-4-trifluoromethyl-pyrimidine-5-carboxylic acid (tetrahydro-thiopyran-4-yl)-amide] | 300 to 1000 | – | – | – | – |
| O=C(NCC1(O)CCCCC1)c1cnc(Nc2cccc(F)c2)nc1C(F)(F)F [Example 86, 2-(3-Fluoropheny1-amino)4-trifluoro-methyl-pyrimidine-5-carboxylic acid(1-hydroxy-cyclohexyl-methyl)amide] | 300 to 1000 | – | – | – | – |
| N#Cc1ccc(Nc2ncc(C(=O)NCC3CCCC3)c(C(F)(F)F)n2)cc1 [Example 176, 2-(4-Cyanophenylamino)-4-trifluoromethyl-pyrimidine-5-carboxylic acid cyclopentylmethyl-amide] | – | 0.33 | 1.78 | 13.15 | 68.7 |
| N#Cc1ccc(Nc2ncc(C(=O)NCC3CCC3)c(C(F)(F)F)n2)cc1Cl [Example 197] | 20 to 300 | – | – | – | – |
| CC(C)CNC(=O)c1cnc(Nc2cccc(Cl)c2)nc1C(F)(F)F [Example 210] | 20 to 300 | – | – | – | – |
